Converted amounts (≈) assume the structure as drawn. Marks after values point to notes of the source that are not given here.
Assays:
[1] = test system: Streptococcus sp. (β-hemolytic); experiment: In vitro antibacterial activity, standard agar dilution method (Table II); assay type: cell-based
Pseudomonas aeruginosa = experiment: as above; assay type: cell-based; settings: strain 12-4-4
Pasteurella multocida = experiment: Minimum inhibitory concentration by agar dilution (Table VI); assay type: cell-based; settings: 6 strains tested
Pasteurella haemolytica = experiment: as above; assay type: cell-based; settings: 3 strains tested
[2] = test system: Mycoplasma gallisepticum "R"; experiment: Minimum inhibitory concentration assay for Mycoplasma gallisepticum (microdilution, Table VII); settings: microdilution; "R" strain
Peptococcus magnus = experiment: In vitro antibacterial activity, standard agar dilution method (Table II); assay type: cell-based
[3] = Growth of chickens and efficiency of feed utilization (Example 5, Table VIII); assay type: in vivo, Peterson X Arbor Acres chicks; settings: for Feed/Gain 0-1 Wk: control 1.21; for Feed/Gain 0-2 Wk: control 1.33; for Feed/Gain 0-3 Wk: control 1.43; for efficiency of feed utilization (statement in words) / weight gains of chicks (statement in words): over unmedicated controls
Method: In this test one day old Peterson X Arbor Acres chicks are sorted into equal weight groups of 5 males and 5 females per cage. Cages are randomized to treatment groups with six replicates per treatment. Each compound is tested at 50 and 100 ppm in the diet and evaluated against chicks receiving a non-medicated diet.
The chicks are weighed at the start of the test and at 1 week intervals thereafter to the conclusion of said test. The chicks are given free access to feed and water during the entire test period. The feed is weighed when provided to the chicks and excess feed collected and weighed when the cages are cleaned.
The poultry diet employed in the test is as follows: Vitamin-amino acid premix 0.5% Trace minerals 0.1% Sodium chloride 0.3% Dicalcium phosphate 1.2% Ground limestone 0.5% Stabilized fat 4.0% Dehydrated alfalfa, 17% protein 2.0% Corn gluten meal, 41% protein 5.0% Menhaden fish meal, 60% protein 5.0% Soybean oil meal, 44% protein 30.0% Ground yellow corn, fine to 100.0%
The vitamin-amino acid premix in the above feed composition is prepared from the following formulation. The expressions of quantity relate to units per kilogram of the finished feed compositions. Butylated hydroxy toluene 125.0 mg d1-Methionine 500.0 mg Vitamin A 3300.0 I.U. Vitamin D₃ 1100.0 I.C.U. Riboflavin 4.4 mg Vitamin E 2.2 I.U. Niacin 27.5 mg Panthothenic acid 8.8 mg Choline chloride 500.0 mg Folic acid 1.43 mg Menadione sodium bisulfate 1.1 mg Vitamin B₁₂ 11.0 mcg Ground yellow corn, fine to […]

[4] = test system: Pasteurella multocida 31081B; experiment: Pasteurella disk test (primary in vitro disk diffusion test); settings: disks soaked in 2.5 mg/ml solution; strain 31081B
[5] = test system: Staphylococcus aureus Smith; experiment: In vivo antibacterial activity in infected mice (Table III); settings: S. aureus Smith, 30 minutes before infection
Caenorhabditis elegans = experiment: Control of the free living nematode Caenorhabditis elegans (motility rating); assay type: cell-based; design: key: 9 = worms immobile or dead within 4 hours post immersion in microfilter test solution; 8 = no motility; 7 = markedly reduced motility in approximately 95% of worms; 6 = reduced motility; 5 = slightly reduced motility; 0 = normal motility, same as controls; settings: 150 ppm; motility of adults and larvae
Excerpt: Culture Maintenance: Cultures of C. elegans (Bristol strain from J. Lewis) are maintained on E. coli lawns on NG Agar Plates at 20 C. New cultures are established weekly. Nematodes for testing are washed from 4-5 day old cultures using Fresh Ascaris ringers Solution (FARS). The worms are further washed with FARS, containing gentamycin, to reduce bacterial contamination and centrifuged to separate worms from wash solution. This procedure is repeated three times. The washed worms are than added to C. briggsae Maintenance Medium (CbMM), from GIBCO^a to which is added gentamycin (600 units/ml) and mycostatin (0.5 mg.ml). ^aGIBCO Laboratories, 3175 Staley Road, Grand Island, N.Y. 14027, USA Compounds are dissolved in acetone and made up to volume with equal parts of water. The final test concentration of each compound in the mixture is 150 ppm. The test material is micropipetted (25 ul) into a single well of a 96-well sterile tissue culture plate (COSTAR)^b and the solvent allowed to evaporate. These "treated" plates are used immediately or stored in a freezer without apparent adverse effects on the compounds. ^b205 Broadway, Cambridge, MA 02139, USA […] […] Immediately prior to reading the plate, it is gently tapped to stimulate the movement of the worms. Activity is judged subjectively, but semi-quantitatively, based on the drug effects on motility of the adults and larvae. […]

Streptococcus pneumoniae = experiment: In vitro antibacterial activity, standard agar dilution method (Table II); assay type: cell-based
Streptococcus pyogenes = experiment: Minimum inhibitory concentration by agar dilution (Table VI); assay type: cell-based; settings: 2 strains tested
Streptococcus uberis = experiment: as above; assay type: cell-based; settings: 1 strain tested
Escherichia coli = experiment: as above; assay type: cell-based; settings: 2 strains tested
Serratia marcescens = experiment: In vitro antibacterial activity, standard agar dilution method (Table II); assay type: cell-based; settings: strain K-84-18
[6] = test system: Pasteurella haemolytica 30660; experiment: Pasteurella disk test (primary in vitro disk diffusion test); assay type: cell-based; settings: disks soaked in 2.5 mg/ml solution; strain 30660
[7] = test system: Staphylococcus epidermidis; experiment: In vitro antibacterial activity, standard agar dilution method (Table II); assay type: cell-based; settings: strain IO-83-58
Treponema hyodysenteriae = experiment: T. hyodysenteriae disk test (primary in vitro disk diffusion test); settings: disks soaked in 2.5 mg/ml solution, zones of inhibited hemolysis
[8] = single subcutaneous dose 4 mg/kg
[9] = single subcutaneous dose 16 mg/kg
[10] = single subcutaneous dose 64 mg/kg
[11] = single subcutaneous dose 256 mg/kg

C/C=C\C=C\[C@@H]1O[C@](O)([C@H](CO[C@H]2C[C@@H](OC)[C@@H](O[C@@H]3C[C@@H](OC)[C@@H](O[C@H]4C[C@H](OC)[C@H](O)[C@H](C)O4)[C@H](C)O3)[C@@H](C)O2)C(=O)NC/C=C/C=C(\C)[C@@H](OC)[C@H](C)[C@H]2C[C@H](O)[C@H](/C=C/C=C/C=C/C(=O)O)O2)[C@H](OC(=O)Cc2ccccc2)[C@H](O)C1(C)C [LL-E19020 alpha]
Minimal Inhibitory Concentration ([1]; strain C203): 0.5 µg/mL
Minimal Inhibitory Concentration ([1]; strain VGH-84-60): 0.25 µg/mL
Minimal Inhibitory Concentration ([1]; strain VGH-84-61): 1 µg/mL
Minimal Inhibitory Concentration ([1]; strain VGH-84-62): 1 µg/mL
Minimal Inhibitory Concentration ([1]; strain VGH-84-63): 0.12 µg/mL
Minimal Inhibitory Concentration ([1]; strain VGH-84-64): 0.12 µg/mL
Minimal Inhibitory Concentration (Pseudomonas aeruginosa): >256 µg/mL
MIC (Pasteurella multocida): 8 to 16 µg/mL
MIC (Pasteurella haemolytica): 16 µg/mL (≈ 13 µM)
MIC [2]: 0.125 µg/mL (≈ 0.102 µM)
Minimal Inhibitory Concentration (Peptococcus magnus; strain ATCC 14956): 0.12 µg/mL
Minimal Inhibitory Concentration (Peptococcus magnus; strain ATCC 29328): 0.12 µg/mL
Weight Gains % Improvement over Controls 0-1 Wk ([3]; 50 ppm in the diet): 12.5** %
Weight Gains % Improvement over Controls 0-2 Wk ([3]; 50 ppm in the diet): 4.1* %
Weight Gains % Improvement over Controls 0-3 Wk ([3]; 50 ppm in the diet): 4.2* %
Feed/Gain 0-1 Wk ([3]; 50 ppm in the diet): 1.11*
Feed/Gain 0-2 Wk ([3]; 50 ppm in the diet): 1.30
Feed/Gain 0-3 Wk ([3]; 50 ppm in the diet): 1.38
Weight Gains % Improvement over Controls 0-1 Wk ([3]; 100 ppm in the diet): 8.9* %
Weight Gains % Improvement over Controls 0-2 Wk ([3]; 100 ppm in the diet): 6.3** %
Weight Gains % Improvement over Controls 0-3 Wk ([3]; 100 ppm in the diet): 6.1** %
Feed/Gain 0-1 Wk ([3]; 100 ppm in the diet): 1.12*
Feed/Gain 0-2 Wk ([3]; 100 ppm in the diet): 1.27
Feed/Gain 0-3 Wk ([3]; 100 ppm in the diet): 1.39
efficiency of feed utilization (statement in words) [3]: increased the efficiency of feed utilization
weight gains of chicks (statement in words) [3]: improved the weight gains of chicks
ZONE SIZE [4]: 15 mm
Survival Ratios 7 Days After Infection [5, 8]: 2/5
Survival Ratios 7 Days After Infection [5, 9]: 3/5
Survival Ratios 7 Days After Infection [5, 10]: 3/5
Survival Ratios 7 Days After Infection [5, 11]: 3/5
Rating (Caenorhabditis elegans): 9 (immobile or dead)
Minimal Inhibitory Concentration (Streptococcus pneumoniae; strain K-84-21): 1 µg/mL
Minimal Inhibitory Concentration (Streptococcus pneumoniae; strain SVI): 1 µg/mL
Minimal Inhibitory Concentration (Streptococcus pneumoniae; strain VGH-84-56): 1 µg/mL
Minimal Inhibitory Concentration (Streptococcus pneumoniae; strain VGH-84-57): 2 µg/mL
Minimal Inhibitory Concentration (Streptococcus pneumoniae; strain VGH-84-58): 0.25 µg/mL
Minimal Inhibitory Concentration (Streptococcus pneumoniae; strain VGH-84-59): 0.25 µg/mL
MIC (Streptococcus pyogenes): 2 µg/mL (≈ 1.63 µM)
MIC (Streptococcus uberis): 8 µg/mL (≈ 6.52 µM)
MIC (Escherichia coli): ≧ 256 µg/ml
Minimal Inhibitory Concentration (Serratia marcescens): >256 µg/mL
ZONE SIZE [6]: 13 mm
Minimal Inhibitory Concentration [7]: > 256 µg/mL
ZONE SIZE (Treponema hyodysenteriae; strain B78 (ATCC 27164)): 0 mm
ZONE SIZE (Treponema hyodysenteriae; strain B204 (ATCC 31212)): 15 mm

C/C=C/C=C/[C@@H]1O[C@](O)([C@H](CO[C@H]2C[C@H](OC)[C@H](O[C@@H]3C[C@H](OC)[C@@H](O[C@H]4C[C@H](OC)[C@H](O)[C@H](C)O4)[C@H](C)O3)[C@H](C)O2)C(=O)NC/C=C/C=C(\C)[C@H](OC)[C@@H](C)[C@@H]2C[C@H](O)[C@@H](/C=C/C=C/C=C\C(=O)O)O2)[C@@H](O)[C@H](OC(=O)Cc2ccccc2)C1(C)C [LL-E19020 beta]
Minimal Inhibitory Concentration ([1]; strain C203): 0.5 µg/mL
Minimal Inhibitory Concentration ([1]; strain VGH-84-60): 0.25 µg/mL
Minimal Inhibitory Concentration ([1]; strain VGH-84-61): 0.5 µg/mL
Minimal Inhibitory Concentration ([1]; strain VGH-84-62): 0.5 µg/mL
Minimal Inhibitory Concentration ([1]; strain VGH-84-63): 0.12 µg/mL
Minimal Inhibitory Concentration ([1]; strain VGH-84-64): 0.12 µg/mL
Minimal Inhibitory Concentration (Pseudomonas aeruginosa): >128 µg/mL
MIC (Pasteurella multocida): 8 to 16 µg/mL
MIC (Pasteurella haemolytica): 16 µg/mL (≈ 13 µM)
MIC [2]: 0.125 µg/mL (≈ 0.102 µM)
Minimal Inhibitory Concentration (Peptococcus magnus; strain ATCC 14956): 0.5 µg/mL
Minimal Inhibitory Concentration (Peptococcus magnus; strain ATCC 29328): 0.5 µg/mL
Weight Gains % Improvement over Controls 0-1 Wk ([3]; 50 ppm in the diet): 12.7** %
Weight Gains % Improvement over Controls 0-2 Wk ([3]; 50 ppm in the diet): 4.5* %
Weight Gains % Improvement over Controls 0-3 Wk ([3]; 50 ppm in the diet): 5.3* %
Feed/Gain 0-1 Wk ([3]; 50 ppm in the diet): 1.11*
Feed/Gain 0-2 Wk ([3]; 50 ppm in the diet): 1.31
Feed/Gain 0-3 Wk ([3]; 50 ppm in the diet): 1.40
Weight Gains % Improvement over Controls 0-1 Wk ([3]; 100 ppm in the diet): 10.7* %
Weight Gains % Improvement over Controls 0-2 Wk ([3]; 100 ppm in the diet): 5.1* %
Weight Gains % Improvement over Controls 0-3 Wk ([3]; 100 ppm in the diet): 5.9** %
Feed/Gain 0-1 Wk ([3]; 100 ppm in the diet): 1.13*
Feed/Gain 0-2 Wk ([3]; 100 ppm in the diet): 1.29
Feed/Gain 0-3 Wk ([3]; 100 ppm in the diet): 1.38
efficiency of feed utilization (statement in words) [3]: increased the efficiency of feed utilization
weight gains of chicks (statement in words) [3]: improved the weight gains of chicks
ZONE SIZE [4]: 13 mm
Survival Ratios 7 Days After Infection [5, 8]: 1/5
Survival Ratios 7 Days After Infection [5, 9]: 1/5
Survival Ratios 7 Days After Infection [5, 10]: 1/5
Survival Ratios 7 Days After Infection [5, 11]: 1/5
Rating (Caenorhabditis elegans): 9 (immobile or dead)
Minimal Inhibitory Concentration (Streptococcus pneumoniae; strain K-84-21): 0.5 µg/mL
Minimal Inhibitory Concentration (Streptococcus pneumoniae; strain SVI): 1 µg/mL
Minimal Inhibitory Concentration (Streptococcus pneumoniae; strain VGH-84-56): 0.5 µg/mL
Minimal Inhibitory Concentration (Streptococcus pneumoniae; strain VGH-84-57): 1 µg/mL
Minimal Inhibitory Concentration (Streptococcus pneumoniae; strain VGH-84-58): 0.25 µg/mL
Minimal Inhibitory Concentration (Streptococcus pneumoniae; strain VGH-84-59): 0.25 µg/mL
MIC (Streptococcus pyogenes): 2 to 4 µg/mL
MIC (Streptococcus uberis): 4 µg/mL (≈ 3.26 µM)
MIC (Escherichia coli): ≧ 256 µg/ml
Minimal Inhibitory Concentration (Serratia marcescens): >128 µg/mL
ZONE SIZE [6]: 13 mm
Minimal Inhibitory Concentration [7]: > 128 µg/mL
ZONE SIZE (Treponema hyodysenteriae; strain B204 (ATCC 31212)): 11 mm

— patent EP0252380B1, “Antibiotic LL-E19020 alpha and beta” (AMERICAN CYANAMID COMPANY, priority 1986, dated 1988)
